Test results reported in patent US11072605B2, “Crystalline brexpiprazole” (Hexal Aktiengesellschaft, priority 2017, dated 2021).

Assay: Particle size distribution by laser diffraction (Malvern Mastersizer 3000)
Type: physicochemical
Settings: aqueous suspension, after ultrasonification
Experimental: For the purpose of this invention, particle size distribution (PSD) is determined as the percent volume at each particle size and measured by a laser diffraction method in the context of a circulating aqueous suspension.
A Malvern Mastersizer 3000 laser diffraction analyzer equipped with a Hydro EV measurement cell was used. About 50 mg of sample were filled into a 15 ml glass test tube. The sample was wetted with two drops of Tween 80 and vortexed. Then the thoroughly wetted sample was dispersed in about 7 mL of UHQ-water by vortexing until the particles were dispersed. The suspension was treated for 7 minutes in an ultrasonification bath at RT (Elma S50H). The well dispersed suspension was then measured in water by adding a sample from the center of the test tube containing the well dispersed suspension to a water-filled dispersion unit prefilled with 70 mL of water. The sample in the 70 mL dispersion unit was kept under stirring at 2000 rpm. More sample from the test tube was added, until a targeted obscuration range of 10-25 percent was achieved. The Malvern Mastersizer was operated using the following parameters:
Particle size distribution was measured with a Malvern Mastersizer 3000 laser diffraction analyzer equipped with a Hydro EV measurement cell. About 50 mg of sample were given into a test tube. The sample was wetted with two drops of Tween 80 and dispersed in about 7 ml of water on a Vortexer. The suspension was treated for 7 minutes in a ultrasonification bath (Elma S50H). The well dispersed suspension was afterwards measured in water at a targeted obscuration range of 10-25 percent while circulating the aqueous suspension and stirring the suspension reservoir at 2000 rpm after a waiting period of three minutes. A fraunhofer optical model was utilized to deconvolute the sample scattering patterns to yield the resultant particle size distributions. Analysis model: General purpose/normal sensitivity. Measuring/background time: about 10 sec

| d(4,3) volume mean diameter | d(10) (volume distribution) | d(90) (volume distribution) | SMILES | d(50) (volume distribution) [μm] |
| --- | --- | --- | --- | --- |
| D(4.3): 19 μm | D(10): 1.5 μm | D(90): 42 μm | O=c1ccc2ccc(OCCCCN3CCN(c4cccc5sccc45)CC3)cc2[nH]1 [(i)] |  |
| D(4.3): 30 μm | D(10): 1.3 μm | D(90); 79 μm | O=c1ccc2ccc(OCCCCN3CCN(c4cccc5sccc45)CC3)cc2[nH]1 [(ii)] |  |

| SMILES | d(4,3) volume mean diameter | d(10) (volume distribution) | d(90) (volume distribution) | d(50) (volume distribution) [μm] |
| --- | --- | --- | --- | --- |
| O=c1ccc2ccc(OCCCCN3CCN(c4cccc5sccc45)CC3)cc2[nH]1 [Compound I, 7-[4-[4-(1-Benzothiophen-4-yl)piperazin-1-yl]butoxy]quinolin-2(1H)-one, reference compound] |  | 0.8 μm | 10.8 μm | 3 |
